One block for each compound: values may come before it.
Columns and labels:
[1] = biological target: Epidermal growth factor receptor (Homo sapiens) (UniProt P00533); test: Inhibition of human recombinant EGFR at 500 nM related to control ULK1
[2] = biological target: T1, Serine/threonine-protein kinase 3 (Homo sapiens) (UniProt Q13188); test: Inhibition of human recombinant MST2 at 500 nM in presence of ATP by radiometric assay relative to control
T1 sequence (whole entry): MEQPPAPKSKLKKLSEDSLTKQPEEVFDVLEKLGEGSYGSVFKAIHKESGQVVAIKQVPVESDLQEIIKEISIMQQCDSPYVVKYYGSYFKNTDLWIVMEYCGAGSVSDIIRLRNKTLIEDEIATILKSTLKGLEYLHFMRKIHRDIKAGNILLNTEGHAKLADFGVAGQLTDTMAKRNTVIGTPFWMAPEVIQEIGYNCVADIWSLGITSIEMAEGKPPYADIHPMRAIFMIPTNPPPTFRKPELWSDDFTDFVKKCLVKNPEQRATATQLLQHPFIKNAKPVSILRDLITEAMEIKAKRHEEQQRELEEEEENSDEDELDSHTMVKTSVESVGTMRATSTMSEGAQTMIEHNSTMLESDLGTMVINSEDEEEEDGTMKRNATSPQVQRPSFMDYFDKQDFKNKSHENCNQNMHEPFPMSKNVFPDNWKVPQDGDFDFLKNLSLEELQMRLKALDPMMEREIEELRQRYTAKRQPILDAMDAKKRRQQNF

[3] = biological target: T2, Testis-specific serine/threonine-protein kinase 2 (Homo sapiens) (UniProt Q96PF2); test: Inhibition of human recombinant TSSK2 at 500 nM related to control ULK1
T2 sequence (whole entry): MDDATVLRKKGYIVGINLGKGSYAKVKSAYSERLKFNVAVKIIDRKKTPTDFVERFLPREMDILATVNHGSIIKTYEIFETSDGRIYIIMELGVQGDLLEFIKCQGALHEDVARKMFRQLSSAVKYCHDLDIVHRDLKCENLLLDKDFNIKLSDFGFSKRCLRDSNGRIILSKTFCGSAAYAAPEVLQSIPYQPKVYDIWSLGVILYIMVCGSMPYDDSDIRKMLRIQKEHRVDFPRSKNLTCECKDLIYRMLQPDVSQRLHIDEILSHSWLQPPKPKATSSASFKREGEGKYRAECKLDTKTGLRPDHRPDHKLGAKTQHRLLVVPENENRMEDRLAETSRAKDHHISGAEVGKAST

[4] = biological target: Mitogen-activated protein kinase kinase kinase 10 (Homo sapiens) (UniProt Q02779); test: Inhibition of human recombinant MLK2 at 500 nM related to control ULK1
[5] = biological target: Casein kinase II subunit alpha (Homo sapiens) (UniProt P68400); test: Inhibition of human recombinant CK2a1 at 500 nM in presence of ATP by radiometric assay relative to control
[6] = biological target: Phosphorylase b kinase gamma catalytic chain, skeletal muscle/heart isoform (Homo sapiens) (UniProt Q16816); test: Inhibition of human recombinant PHKg1 at 500 nM in presence of ATP by radiometric assay relative to control
Phosphorylase b kinase gamma catalytic chain, skeletal muscle/heart isoform (Homo sapiens), sequence (Q16816 whole entry, looked up, canonical isoform): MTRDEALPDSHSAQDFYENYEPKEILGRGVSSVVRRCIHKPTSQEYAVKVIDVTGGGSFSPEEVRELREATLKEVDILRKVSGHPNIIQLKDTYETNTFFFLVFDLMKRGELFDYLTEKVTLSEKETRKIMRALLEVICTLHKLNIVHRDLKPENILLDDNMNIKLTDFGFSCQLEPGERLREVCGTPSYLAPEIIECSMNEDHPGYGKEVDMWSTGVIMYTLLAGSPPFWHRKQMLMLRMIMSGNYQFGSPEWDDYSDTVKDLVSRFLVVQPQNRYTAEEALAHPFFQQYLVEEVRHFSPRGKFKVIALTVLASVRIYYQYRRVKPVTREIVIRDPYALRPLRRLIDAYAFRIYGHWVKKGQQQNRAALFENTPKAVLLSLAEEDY

[7] = biological target: Vascular endothelial growth factor receptor 2 (Homo sapiens) (UniProt P35968); test: Inhibition of human recombinant KDR at 500 nM related to control ULK1
Vascular endothelial growth factor receptor 2 (Homo sapiens), sequence (P35968 whole entry): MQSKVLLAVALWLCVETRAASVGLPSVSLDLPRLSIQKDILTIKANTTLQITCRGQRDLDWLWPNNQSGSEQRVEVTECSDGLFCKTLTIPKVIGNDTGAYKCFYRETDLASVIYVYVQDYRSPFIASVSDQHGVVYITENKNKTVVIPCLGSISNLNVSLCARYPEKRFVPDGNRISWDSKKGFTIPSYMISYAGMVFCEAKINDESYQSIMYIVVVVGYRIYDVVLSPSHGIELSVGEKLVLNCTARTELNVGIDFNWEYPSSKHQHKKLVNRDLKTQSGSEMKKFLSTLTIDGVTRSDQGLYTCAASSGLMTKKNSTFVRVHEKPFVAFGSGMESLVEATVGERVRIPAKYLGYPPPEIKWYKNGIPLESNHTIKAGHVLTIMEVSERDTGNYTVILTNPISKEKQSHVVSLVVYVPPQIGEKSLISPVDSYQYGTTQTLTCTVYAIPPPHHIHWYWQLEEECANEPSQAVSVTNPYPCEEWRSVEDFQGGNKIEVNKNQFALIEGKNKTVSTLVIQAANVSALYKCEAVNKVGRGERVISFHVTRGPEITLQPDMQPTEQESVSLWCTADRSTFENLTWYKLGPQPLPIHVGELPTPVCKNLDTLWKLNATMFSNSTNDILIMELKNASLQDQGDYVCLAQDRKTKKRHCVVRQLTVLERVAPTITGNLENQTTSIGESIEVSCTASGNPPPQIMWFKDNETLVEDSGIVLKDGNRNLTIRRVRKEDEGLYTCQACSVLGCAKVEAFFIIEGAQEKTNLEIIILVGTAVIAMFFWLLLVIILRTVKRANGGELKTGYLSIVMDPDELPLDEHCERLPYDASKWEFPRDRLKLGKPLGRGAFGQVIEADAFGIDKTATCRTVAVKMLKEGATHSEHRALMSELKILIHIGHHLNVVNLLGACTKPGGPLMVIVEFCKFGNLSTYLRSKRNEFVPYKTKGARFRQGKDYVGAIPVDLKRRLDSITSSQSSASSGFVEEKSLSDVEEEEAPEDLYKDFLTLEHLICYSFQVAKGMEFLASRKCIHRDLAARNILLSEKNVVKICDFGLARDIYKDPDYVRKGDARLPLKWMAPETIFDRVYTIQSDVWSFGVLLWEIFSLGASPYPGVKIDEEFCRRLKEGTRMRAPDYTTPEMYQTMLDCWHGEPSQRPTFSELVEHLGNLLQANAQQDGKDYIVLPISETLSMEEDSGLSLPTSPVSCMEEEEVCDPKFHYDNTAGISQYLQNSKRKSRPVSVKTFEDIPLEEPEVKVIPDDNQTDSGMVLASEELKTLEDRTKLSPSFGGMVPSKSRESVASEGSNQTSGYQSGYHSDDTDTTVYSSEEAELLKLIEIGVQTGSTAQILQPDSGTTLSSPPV

[8] = biological target: Tyrosine-protein kinase Blk (Homo sapiens) (UniProt P51451); test: Inhibition of human recombinant BLK at 500 nM related to control ULK1
Tyrosine-protein kinase Blk (Homo sapiens), sequence (P51451 2-505 limits assumed): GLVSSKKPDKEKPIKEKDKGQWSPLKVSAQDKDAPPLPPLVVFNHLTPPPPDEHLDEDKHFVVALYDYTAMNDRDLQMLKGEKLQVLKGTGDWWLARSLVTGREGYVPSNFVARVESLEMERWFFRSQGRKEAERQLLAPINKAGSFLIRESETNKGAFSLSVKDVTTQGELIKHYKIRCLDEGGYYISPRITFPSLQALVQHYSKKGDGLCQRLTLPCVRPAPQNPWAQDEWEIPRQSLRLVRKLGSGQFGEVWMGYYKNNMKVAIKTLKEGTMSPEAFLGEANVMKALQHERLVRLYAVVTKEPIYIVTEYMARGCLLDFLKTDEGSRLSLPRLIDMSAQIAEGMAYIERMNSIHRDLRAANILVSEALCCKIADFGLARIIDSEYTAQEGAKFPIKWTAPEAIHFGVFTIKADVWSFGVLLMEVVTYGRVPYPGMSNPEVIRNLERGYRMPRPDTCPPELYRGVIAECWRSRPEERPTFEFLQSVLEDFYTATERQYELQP

[9] = biological target: Serine/threonine-protein kinase 32A (Homo sapiens) (UniProt Q8WU08); test: Inhibition of human recombinant YANK1 at 40 nM related to control ULK1
[10] = biological target: Tau-tubulin kinase 1 (Homo sapiens) (UniProt Q5TCY1); test: Inhibition of human recombinant TTBK1 at 40 nM related to control ULK1
Tau-tubulin kinase 1 (Homo sapiens), sequence (Q5TCY1 whole entry): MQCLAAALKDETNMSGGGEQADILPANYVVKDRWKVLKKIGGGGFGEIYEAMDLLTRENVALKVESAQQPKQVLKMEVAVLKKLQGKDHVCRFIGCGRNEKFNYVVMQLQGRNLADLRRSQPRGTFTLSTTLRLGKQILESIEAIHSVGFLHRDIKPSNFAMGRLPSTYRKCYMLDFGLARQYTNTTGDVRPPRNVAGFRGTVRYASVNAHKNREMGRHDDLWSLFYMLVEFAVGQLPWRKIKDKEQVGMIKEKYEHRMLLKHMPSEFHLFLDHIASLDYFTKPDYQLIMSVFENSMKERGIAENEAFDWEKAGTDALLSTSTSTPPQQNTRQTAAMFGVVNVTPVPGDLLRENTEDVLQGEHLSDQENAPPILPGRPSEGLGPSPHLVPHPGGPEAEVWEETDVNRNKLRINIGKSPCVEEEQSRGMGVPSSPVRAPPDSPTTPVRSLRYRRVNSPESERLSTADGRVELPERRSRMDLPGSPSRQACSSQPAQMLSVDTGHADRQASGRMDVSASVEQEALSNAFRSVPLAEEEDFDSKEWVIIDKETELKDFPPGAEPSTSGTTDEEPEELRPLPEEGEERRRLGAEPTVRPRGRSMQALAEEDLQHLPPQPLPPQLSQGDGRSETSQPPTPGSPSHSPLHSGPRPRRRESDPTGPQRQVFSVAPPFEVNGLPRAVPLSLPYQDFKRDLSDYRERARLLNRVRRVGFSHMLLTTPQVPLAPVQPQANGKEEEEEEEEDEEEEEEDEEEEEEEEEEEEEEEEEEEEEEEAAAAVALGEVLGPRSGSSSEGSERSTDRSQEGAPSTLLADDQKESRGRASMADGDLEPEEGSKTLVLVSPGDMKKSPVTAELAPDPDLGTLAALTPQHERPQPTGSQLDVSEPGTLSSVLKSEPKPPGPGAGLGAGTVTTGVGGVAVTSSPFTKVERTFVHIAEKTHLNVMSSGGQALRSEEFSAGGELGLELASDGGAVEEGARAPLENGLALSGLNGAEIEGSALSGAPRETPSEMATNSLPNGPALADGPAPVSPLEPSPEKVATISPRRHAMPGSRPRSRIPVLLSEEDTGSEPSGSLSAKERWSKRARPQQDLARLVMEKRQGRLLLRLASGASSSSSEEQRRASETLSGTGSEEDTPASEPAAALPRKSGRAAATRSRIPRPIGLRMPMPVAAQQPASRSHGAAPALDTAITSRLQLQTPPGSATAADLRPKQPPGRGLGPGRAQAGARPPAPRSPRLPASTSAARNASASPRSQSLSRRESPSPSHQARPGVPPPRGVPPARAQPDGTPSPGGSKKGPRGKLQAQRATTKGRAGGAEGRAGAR

[11] = biological target: T3, Serine/threonine-protein kinase D3 (Homo sapiens) (UniProt O94806); test: Inhibition of human recombinant PKD3 at 40 nM related to control ULK1
T3 sequence (whole entry): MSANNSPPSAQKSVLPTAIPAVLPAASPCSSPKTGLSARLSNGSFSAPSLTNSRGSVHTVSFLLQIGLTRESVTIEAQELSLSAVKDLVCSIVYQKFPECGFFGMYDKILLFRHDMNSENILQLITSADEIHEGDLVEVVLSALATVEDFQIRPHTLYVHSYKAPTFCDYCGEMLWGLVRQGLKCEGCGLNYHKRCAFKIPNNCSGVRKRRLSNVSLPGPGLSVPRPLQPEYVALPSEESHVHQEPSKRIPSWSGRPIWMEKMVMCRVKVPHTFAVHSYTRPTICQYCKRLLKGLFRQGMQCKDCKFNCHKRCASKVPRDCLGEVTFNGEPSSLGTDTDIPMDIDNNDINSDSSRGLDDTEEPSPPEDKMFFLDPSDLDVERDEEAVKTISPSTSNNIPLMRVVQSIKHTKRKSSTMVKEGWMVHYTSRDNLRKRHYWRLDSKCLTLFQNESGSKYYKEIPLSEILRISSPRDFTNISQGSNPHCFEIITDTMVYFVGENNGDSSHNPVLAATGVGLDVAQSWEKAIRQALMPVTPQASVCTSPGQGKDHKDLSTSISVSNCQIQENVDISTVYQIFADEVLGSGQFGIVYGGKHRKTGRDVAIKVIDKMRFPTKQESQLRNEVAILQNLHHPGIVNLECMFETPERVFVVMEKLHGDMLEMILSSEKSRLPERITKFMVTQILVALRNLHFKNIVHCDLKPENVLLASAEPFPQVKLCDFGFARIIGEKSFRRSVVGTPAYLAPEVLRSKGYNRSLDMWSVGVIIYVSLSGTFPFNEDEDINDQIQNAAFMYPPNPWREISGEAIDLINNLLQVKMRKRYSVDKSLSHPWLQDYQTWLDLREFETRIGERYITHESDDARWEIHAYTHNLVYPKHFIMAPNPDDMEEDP

[12] = biological target: Serine/threonine-protein kinase PLK1 (Homo sapiens) (UniProt P53350); test: Inhibition of human recombinant PLK1 at 40 nM in presence of ATP by radiometric assay relative to control
[13] = biological target: T1, Serine/threonine-protein kinase 3 (Homo sapiens); test: Inhibition of human recombinant MST2 at 40 nM in presence of ATP by radiometric assay relative to control
[14] = biological target: Insulin receptor (Homo sapiens) (UniProt P06213); test: Inhibition of human recombinant INSR at 40 nM related to control ULK1
[15] = biological target: Homeodomain-interacting protein kinase 2 (Homo sapiens) (UniProt Q9H2X6); test: Inhibition of human recombinant HIPK2 at 15 nM related to control ULK1
Homeodomain-interacting protein kinase 2 (Homo sapiens), sequence (Q9H2X6 whole entry, looked up): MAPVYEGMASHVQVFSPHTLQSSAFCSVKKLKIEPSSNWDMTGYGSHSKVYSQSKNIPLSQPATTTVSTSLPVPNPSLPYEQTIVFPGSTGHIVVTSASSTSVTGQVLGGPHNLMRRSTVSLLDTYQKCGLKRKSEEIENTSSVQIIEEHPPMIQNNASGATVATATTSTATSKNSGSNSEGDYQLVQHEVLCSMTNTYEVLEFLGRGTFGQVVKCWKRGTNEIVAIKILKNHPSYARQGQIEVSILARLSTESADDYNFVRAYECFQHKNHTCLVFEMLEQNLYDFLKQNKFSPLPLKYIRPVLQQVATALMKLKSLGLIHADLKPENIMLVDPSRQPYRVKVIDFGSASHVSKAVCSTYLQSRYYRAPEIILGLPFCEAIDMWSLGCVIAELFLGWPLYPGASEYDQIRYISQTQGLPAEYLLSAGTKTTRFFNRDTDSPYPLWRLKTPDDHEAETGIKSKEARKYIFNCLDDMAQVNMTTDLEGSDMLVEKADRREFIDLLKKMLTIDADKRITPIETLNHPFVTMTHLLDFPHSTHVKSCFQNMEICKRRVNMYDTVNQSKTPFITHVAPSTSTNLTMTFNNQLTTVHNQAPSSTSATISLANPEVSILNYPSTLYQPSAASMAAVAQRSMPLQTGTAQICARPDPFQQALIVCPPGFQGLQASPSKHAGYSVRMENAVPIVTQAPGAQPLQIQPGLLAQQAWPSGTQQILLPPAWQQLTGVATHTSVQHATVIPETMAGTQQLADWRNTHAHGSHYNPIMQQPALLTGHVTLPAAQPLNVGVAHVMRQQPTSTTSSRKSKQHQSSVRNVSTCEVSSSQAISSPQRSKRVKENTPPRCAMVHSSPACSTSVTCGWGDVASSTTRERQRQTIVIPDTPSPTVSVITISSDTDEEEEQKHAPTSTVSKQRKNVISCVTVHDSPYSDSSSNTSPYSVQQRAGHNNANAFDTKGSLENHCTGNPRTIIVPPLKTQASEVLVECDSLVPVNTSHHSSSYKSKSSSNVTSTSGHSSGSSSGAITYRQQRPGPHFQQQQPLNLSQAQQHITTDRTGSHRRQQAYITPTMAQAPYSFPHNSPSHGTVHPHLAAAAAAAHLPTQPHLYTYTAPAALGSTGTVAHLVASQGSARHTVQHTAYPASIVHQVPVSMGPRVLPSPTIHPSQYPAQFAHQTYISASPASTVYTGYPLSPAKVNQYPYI

[16] = biological target: Macrophage-stimulating protein receptor (Homo sapiens) (UniProt Q04912); test: Inhibition of human recombinant RON at 15 nM in presence of ATP by radiometric assay relative to control

fold change (FC) [1]: 0.04
inhibition [2]: 0%
fold change (FC) [3]: 0.03
fold change (FC) [4]: 0.95
inhibition [5]: 14%
inhibition [6]: 23%
fold change (FC) [7]: 0
fold change (FC) [8]: 0.39
SMILES: CNC(=O)c1ccccc1Oc1nc(Nc2cc(OC)c(OC)c(OC)c2)ncc1Br

fold change (FC) [9]: 0.05
fold change (FC) [10]: 0
fold change (FC) [11]: 0.1
inhibition [12]: 0%
inhibition [13]: 0%
fold change (FC) [14]: 0
SMILES: O=C(N[C@@H](C1CC1)C(F)(F)F)c1cc(-c2cnn3cc(-c4ccc(F)cc4)cnc23)cs1

fold change (FC) [15]: 0.03
inhibition [16]: 2%
SMILES: CC(C)[C@H](NC(=O)c1cc(-c2cnn3cc(-c4ccc(OCCN5CCCCC5)cc4)cnc23)cs1)C(F)(F)F

From ChEMBL document CHEMBL5653631, “A Potent and Selective ULK1 Inhibitor Suppresses Autophagy and Sensitizes Cancer Cells to Nutrient Stress” (iScience, 2018)
